Measured values taken from patent publication EP3375430A1, “FRAGRANCE COMPOSITIONS” (Takasago International Corporation, priority 2017, dated 2018).
Values belong to the compound of their own block, whether it stands above or below them.

Assay: Amount of fragrance ingredients retained on paper blotter after evaporation (ethanol extraction, GC-MS)
Format: physicochemical
Procedure: A fragrance (hereafter fragrance TAK, the formulation of which is shown in table 1) was formulated in a typical Eau de Toilette (EdT1) or in fragrance compositions according to the invention (compositions C1 to C4), as shown in table 2. The amount of individual fragrance ingredients retained on paper substrate (blotter) after set time periods was assessed by the following method.
100µL samples of either EdT1 or compositions C1 to C4 were applied to 4.5cm long standard paper blotters with a microsyringe. Three replicate blotters were prepared for each extraction time. After the appropriate evaporation time each of the 3 blotters was transferred to a 30mL glass bottle. 3mL of ethanol and 50µL of a 1% solution of methyl decanoate in ethanol as an internal standard were added. The bottle was sealed and placed on a roller bed to extract the blotter for 1 hour. A sample of the extracting solution was transferred to a vial which was sealed and analysed by gas chromatography (GC 6890) with a Mass Spectrometer detector (MS 5973) using the method described below. The results of the three replicate measurements were averaged. At exact times the same extraction was repeated on the remaining blotters which were stored on a warm surface at 32°C open to the air to allow evaporation. The gas chromatography conditions were as given below.
• Initial Temp: 50°C • Initial Time: 2 min • Rate: 10°C /min • Final Temp: 280°C • Final Time: 5 min • Run Time: 30 min
• Column: HP-5MS 30m * 0.25mm * 0.25µm • Gas: Helium • Constant Pressure 18.55 psi
• Split mode Ratio 40:1 • Inlet Temp: 250°C
• MS 5973 • Mass range: 35 to 350 • Threshold: 100 • Mass Quad: 150°C • Mass Source: 230°C
To simplify the results the average amount of each fragrance ingredient from the 3 samples measured at time zero was set at 100% and all other measurements were then related to that value so tables 3 to 6 show decreasing amounts of fragrance ingredients as a percentage of the initial amount.
The method of example 1 was repeated using a commercial fragrance (hereafter fragrance COM1, the formulation of which is given in table 7) formulated in a typical Eau de Toilette (EdT2) or in fragrance compositions according to the invention (compositions C5 and C6), as shown in table 8.

[1] = Table 9, fragrance COM1 in C5, T0 + 15 min
[2] = Table 9, fragrance COM1 in C5, T0 + 480 min
[3] = Table 9, fragrance COM1 in C5, T0 +1440 min
[4] = Table 9, fragrance COM1 in C6, T0 + 15 min
[5] = Table 9, fragrance COM1 in C6, T0 + 480 min
[6] = Table 9, fragrance COM1 in C6, T0 +1440 min
[7] = Table 9, fragrance COM1 in EdT2, C5 or C6, T0, set at 100% (normalisation)
[8] = Table 9, fragrance COM1 in EdT2, T0 + 15 min
[9] = Table 9, fragrance COM1 in EdT2, T0 + 480 min
[10] = Table 9, fragrance COM1 in EdT2, T0 +1440 min

Compound: CC1(C)CCC[C@]2(C)[C@H]3CCO[C@]3(C)CC[C@@H]12 [Ambroxan™, (3aR,5aS,9aS,9bR)-3a,6,6,9a-tetramethyl-2,4,5,5a,7,8,9,9b-octahydro-1H-benzo[e][1]benzofuran]
amount of fragrance ingredient retained on blotter (percentage of the initial amount) [1]: 85.4%
amount of fragrance ingredient retained on blotter (percentage of the initial amount) [2]: 68.9%
amount of fragrance ingredient retained on blotter (percentage of the initial amount) [3]: 40.11%
amount of fragrance ingredient retained on blotter (percentage of the initial amount) [4]: 75.6%
amount of fragrance ingredient retained on blotter (percentage of the initial amount) [5]: 52.6%
amount of fragrance ingredient retained on blotter (percentage of the initial amount) [6]: 29.9%
amount of fragrance ingredient retained on blotter (percentage of the initial amount) [7]: 100%
amount of fragrance ingredient retained on blotter (percentage of the initial amount) [8]: 81.5%
amount of fragrance ingredient retained on blotter (percentage of the initial amount) [9]: 56.6%
amount of fragrance ingredient retained on blotter (percentage of the initial amount) [10]: 15.42%

Compound: CC=CC(=O)C1=C(C)CCCC1(C)C [Damascone beta]
amount of fragrance ingredient retained on blotter (percentage of the initial amount) [1]: 81.9%
amount of fragrance ingredient retained on blotter (percentage of the initial amount) [2]: 20.5%
amount of fragrance ingredient retained on blotter (percentage of the initial amount) [3]: 2.12%
amount of fragrance ingredient retained on blotter (percentage of the initial amount) [4]: 74.8%
amount of fragrance ingredient retained on blotter (percentage of the initial amount) [5]: 14.7%
amount of fragrance ingredient retained on blotter (percentage of the initial amount) [6]: 1.9%
amount of fragrance ingredient retained on blotter (percentage of the initial amount) [7]: 100%
amount of fragrance ingredient retained on blotter (percentage of the initial amount) [8]: 78.2%
amount of fragrance ingredient retained on blotter (percentage of the initial amount) [9]: 10.6%
amount of fragrance ingredient retained on blotter (percentage of the initial amount) [10]: 4.25%

Compound: O=C1CCCCCCCCCCCC(=O)OCCO1 [Ethylene Brassylate]
amount of fragrance ingredient retained on blotter (percentage of the initial amount) (Table 3, fragrance TAK in C1, 15 min, 32°C): 81%
amount of fragrance ingredient retained on blotter (percentage of the initial amount) (Table 3, fragrance TAK in C1, 60 min, 32°C): 79%
amount of fragrance ingredient retained on blotter (percentage of the initial amount) (Table 3, fragrance TAK in C1, 120 min, 32°C): 81%
amount of fragrance ingredient retained on blotter (percentage of the initial amount) (Table 3, fragrance TAK in C1, 240 min, 32°C): 86%
amount of fragrance ingredient retained on blotter (percentage of the initial amount) (Table 3, fragrance TAK in C1, 480 min, 32°C): 79%
amount of fragrance ingredient retained on blotter (percentage of the initial amount) (Table 3, fragrance TAK in EdT1, 15 min, 32°C): 88%
amount of fragrance ingredient retained on blotter (percentage of the initial amount) (Table 3, fragrance TAK in EdT1, 60 min, 32°C): 85%
amount of fragrance ingredient retained on blotter (percentage of the initial amount) (Table 3, fragrance TAK in EdT1, 120 min, 32°C): 90%
amount of fragrance ingredient retained on blotter (percentage of the initial amount) (Table 3, fragrance TAK in EdT1, 240 min, 32°C): 98%
amount of fragrance ingredient retained on blotter (percentage of the initial amount) (Table 3, fragrance TAK in EdT1, 480 min, 32°C): 100%
amount of fragrance ingredient retained on blotter (percentage of the initial amount) (Table 3, fragrance TAK in EdT1 or C1, T0, set at 100% (normalisation)): 100%
amount of fragrance ingredient retained on blotter (percentage of the initial amount) (Table 4, fragrance TAK in C2, 15 min, 32°C): 97%
amount of fragrance ingredient retained on blotter (percentage of the initial amount) (Table 4, fragrance TAK in C2, 480 min, 32°C): 77%
amount of fragrance ingredient retained on blotter (percentage of the initial amount) (Table 4, fragrance TAK in EdT1, 15 min, 32°C): 87%
amount of fragrance ingredient retained on blotter (percentage of the initial amount) (Table 4, fragrance TAK in EdT1, 480 min, 32°C): 73%
amount of fragrance ingredient retained on blotter (percentage of the initial amount) (Table 4, fragrance TAK in EdT1 or C2, T0, set at 100% (normalisation)): 100%
amount of fragrance ingredient retained on blotter (percentage of the initial amount) (Table 5, fragrance TAK in C3, 15 min, 32°C): 80%
amount of fragrance ingredient retained on blotter (percentage of the initial amount) (Table 5, fragrance TAK in C3, 60 min, 32°C): 93%
amount of fragrance ingredient retained on blotter (percentage of the initial amount) (Table 5, fragrance TAK in C3, 120 min, 32°C): 93%
amount of fragrance ingredient retained on blotter (percentage of the initial amount) (Table 5, fragrance TAK in C3, 240 min, 32°C): 100%
amount of fragrance ingredient retained on blotter (percentage of the initial amount) (Table 5, fragrance TAK in C3, 480 min, 32°C): 82%
amount of fragrance ingredient retained on blotter (percentage of the initial amount) (Table 5, fragrance TAK in C3, 1440 min, 32°C): 96%
amount of fragrance ingredient retained on blotter (percentage of the initial amount) (Table 5, fragrance TAK in EdT1, 15 min, 32°C): 88%
amount of fragrance ingredient retained on blotter (percentage of the initial amount) (Table 5, fragrance TAK in EdT1, 60 min, 32°C): 85%
amount of fragrance ingredient retained on blotter (percentage of the initial amount) (Table 5, fragrance TAK in EdT1, 120 min, 32°C): 90%
amount of fragrance ingredient retained on blotter (percentage of the initial amount) (Table 5, fragrance TAK in EdT1, 240 min, 32°C): 98%
amount of fragrance ingredient retained on blotter (percentage of the initial amount) (Table 5, fragrance TAK in EdT1, 480 min, 32°C): 100%
amount of fragrance ingredient retained on blotter (percentage of the initial amount) (Table 5, fragrance TAK in EdT1, 1440 min, 32°C): 85%
amount of fragrance ingredient retained on blotter (percentage of the initial amount) (Table 5, fragrance TAK in EdT1 or C3, T0, set at 100% (normalisation)): 100%
amount of fragrance ingredient retained on blotter (percentage of the initial amount) (Table 6, fragrance TAK in C4, 15 min, 32°C): 100%
amount of fragrance ingredient retained on blotter (percentage of the initial amount) (Table 6, fragrance TAK in C4, 60 min, 32°C): 93%
amount of fragrance ingredient retained on blotter (percentage of the initial amount) (Table 6, fragrance TAK in C4, 120 min, 32°C): 96%
amount of fragrance ingredient retained on blotter (percentage of the initial amount) (Table 6, fragrance TAK in C4, 240 min, 32°C): 100%
amount of fragrance ingredient retained on blotter (percentage of the initial amount) (Table 6, fragrance TAK in C4, 480 min, 32°C): 100%
amount of fragrance ingredient retained on blotter (percentage of the initial amount) (Table 6, fragrance TAK in EdT1, 15 min, 32°C): 88%
amount of fragrance ingredient retained on blotter (percentage of the initial amount) (Table 6, fragrance TAK in EdT1, 60 min, 32°C): 85%
amount of fragrance ingredient retained on blotter (percentage of the initial amount) (Table 6, fragrance TAK in EdT1, 120 min, 32°C): 90%
amount of fragrance ingredient retained on blotter (percentage of the initial amount) (Table 6, fragrance TAK in EdT1, 240 min, 32°C): 98%
amount of fragrance ingredient retained on blotter (percentage of the initial amount) (Table 6, fragrance TAK in EdT1, 480 min, 32°C): 100%
amount of fragrance ingredient retained on blotter (percentage of the initial amount) (Table 6, fragrance TAK in EdT1 or C4, T0, set at 100% (normalisation)): 100%

Results, then the compound that gave them:

amount of fragrance ingredient retained on blotter (percentage of the initial amount) [1]: 86%
amount of fragrance ingredient retained on blotter (percentage of the initial amount) [2]: 59.8%
amount of fragrance ingredient retained on blotter (percentage of the initial amount) [3]: 28.82%
amount of fragrance ingredient retained on blotter (percentage of the initial amount) [4]: 75.6%
amount of fragrance ingredient retained on blotter (percentage of the initial amount) [5]: 43.6%
amount of fragrance ingredient retained on blotter (percentage of the initial amount) [6]: 20.9%
amount of fragrance ingredient retained on blotter (percentage of the initial amount) [7]: 100%
amount of fragrance ingredient retained on blotter (percentage of the initial amount) [8]: 81.4%
amount of fragrance ingredient retained on blotter (percentage of the initial amount) [9]: 43.9%
amount of fragrance ingredient retained on blotter (percentage of the initial amount) [10]: 13.42%
Compound: CC(C)(C)c1ccc(CCC=O)cc1 [Bourgeonal™, 3-(4-tert-butylphenyl)propanal]

amount of fragrance ingredient retained on blotter (percentage of the initial amount) [1]: 85.8%
amount of fragrance ingredient retained on blotter (percentage of the initial amount) [2]: 45.2%
amount of fragrance ingredient retained on blotter (percentage of the initial amount) [3]: 14.71%
amount of fragrance ingredient retained on blotter (percentage of the initial amount) [4]: 75.4%
amount of fragrance ingredient retained on blotter (percentage of the initial amount) [5]: 33.2%
amount of fragrance ingredient retained on blotter (percentage of the initial amount) [6]: 12.0%
amount of fragrance ingredient retained on blotter (percentage of the initial amount) [7]: 100%
amount of fragrance ingredient retained on blotter (percentage of the initial amount) [8]: 81.5%
amount of fragrance ingredient retained on blotter (percentage of the initial amount) [9]: 30.7%
amount of fragrance ingredient retained on blotter (percentage of the initial amount) [10]: 7.12%
Compound: CC(C=O)Cc1ccc(C(C)C)cc1 (stereo not drawn) [Cyclamen aldehyde]

amount of fragrance ingredient retained on blotter (percentage of the initial amount) [1]: 84.0%
amount of fragrance ingredient retained on blotter (percentage of the initial amount) [2]: 32.8%
amount of fragrance ingredient retained on blotter (percentage of the initial amount) [3]: 5.68%
amount of fragrance ingredient retained on blotter (percentage of the initial amount) [4]: 74.2%
amount of fragrance ingredient retained on blotter (percentage of the initial amount) [5]: 23.3%
amount of fragrance ingredient retained on blotter (percentage of the initial amount) [6]: 5.2%
amount of fragrance ingredient retained on blotter (percentage of the initial amount) [7]: 100%
amount of fragrance ingredient retained on blotter (percentage of the initial amount) [8]: 79.2%
amount of fragrance ingredient retained on blotter (percentage of the initial amount) [9]: 16.4%
amount of fragrance ingredient retained on blotter (percentage of the initial amount) [10]: 3.77%
Compound: Methyl ionone gamma
